According to patent publication US20240365774A1, “METHODS FOR CRYOPROTECTION AND LYOPROTECTION OF CELLS” (LONZA LTD, priority 2021, published 2024):
“Also recorded” adds a separate entry of the source.

Test system: human mesenchymal stem cells (hMSCs)
Assay: Freeze-thaw of hMSCs in CPA formulations at −80° C., viability by alamarBlue assay
Format: cell-based
Description: Adherent bone marrow derived human mesenchymal stem cells (hMSCs) (ATCC) were expanded to create a cell bank and stored in the vapor phase of liquid nitrogen in growth medium supplemented with 50% FBS and 7.5% DMSO at passage 3. Aliquots of those samples were warmed in a 37° C. water bath and cultured in MSCGM™ Mesenchymal Stem Cell Growth Medium BulletKit™ (containing FBS, Lonza); a commercially available medium that facilitates undifferentiated proliferation of hMSCs. The cells were kept in a humidified incubator at 37° C. and 5% CO2, whilst the growth medium was changed every 3-4 days. When hMSCs reached confluence of ˜90%, they were split and re-seeded at ˜5000 cells/cm^2 to facilitate further expansion. For experiments, cells between passages 4-8 were used. […]
For frozen samples, that is for samples after freezing and thawing, viability was measured by performing an alamarBlue™ assay (Invitrogen) according to the manufacturer's instructions. […] This reaction only takes place in cells that are metabolically active (viable), thus correlating measured fluorescence with viable cells. […] Assay reagent was then applied and, after a 4 h incubation, fluorescence was measured using a SpectraMax® iD3 with wavelengths of λex=550 nm and λem=590 nm. Background fluorescence values were subtracted from the measurements and compared to fluorescence values of untreated cells.

SMILES: C[S+](C)[O-] [DMSO, dimethyl sulfoxide, reference compound]
- viable cells after freeze-thaw (5% DMSO control): 58%

SMILES: NC(N)=O [urea]
- viable cells after freeze-thaw (cryoprotection) (urea alone, 0.05, 0.1, 0.2 and 0.5 M, FIG. 1A): virtually no viable cells; also recorded: does not facilitate cryoprotection
